Where a name gives a salt, the structure may show the parent alone.
B1: BMP-7: recombinant human bone morphogenetic protein 7, UniProt P18075 (protein, UniProt P18075 293-431, looked up)
Bone morphogenetic protein 7: STGSKQRSQNRSKTPKNQEALRMANVAENSSSDQRQACKKHELYVSFRDLGWQDWIIAPEGYAAYYCEGECAFPLNSYMNATNHAIVQTLVHFINPETVPKPCCAPTQLNAISVLYFDDSSNVILKKYRNMVVRACGCH

Key:
[1] = test system: CD31-cells (brown adipocyte progenitors); assay: Quantification of UCP1 protein by immunohistochemistry (IHC); assay type: cell-based, human; details: total intensity of UCP1 signal normalized to cell number
Protocol: Differentiation of brown adipocyte progenitors into brown adipocytes can be detected through quantification of UCP1 protein by immunohistochemistry (IHC).
Culturing and differentiation of CD31-cells into brown adipocytes were performed using adipogenic differentiation medium lacking (Minimal Differentiation Medium, MDM) or containing 1 μM rosiglitazone (Reference Differentiation Medium, RDM). After 15 days of differentiation cells were fixed with 4% Paraformaldehyde PBS pH 7.4, and incubated with a UCP1 antibody (Abcam ab23841) and Alexafluor 488 goat anti-rabbit antibody to quantify relative UCP1 levels (green) according to standard protocols. Prior to fixation of cells, nuclei were labeled with 5 μM DAPI (blue) for 10 minutes. Each treatment condition was evaluated in triplicate in a 96-well plate corresponding to approximately 360-480 cells for each data point in total. The InCell 1000 Developer Toolbox software was used to develop an automated cell detection script to measure UCP1 signal intensity, using the nuclei and cytoplasm detection algorithms. As a readout, total intensity of UCP1 signal within the cell was used, normalized to cell number.

CD31-cells = assay: Light microscopic photos of cell morphology, brown adipocyte differentiation; assay type: cell-based, human; details: FIGS. 23A-23H
Protocol: (§1) Cells were seeded at 10,000 per cm^2 in 0.2% gelatin coated plates (48-well tissue culture, Chemglass #CLS-3500-048), cultured until confluency (2-4 days) at 37° C. in Endothelial cell growth medium-2 (EGM2) (BulletKit growth medium, Lonza #CC-3162) and until differentiation (10-16 more days). After 2 or 3 days in EGM2 medium the cells were induced to differentiate by replacing the medium with an adipogenic medium, which is a modification of the adipogenic medium described by Rodriguez et al. and may or may not contain a differentiation inducing agent (e.g., PPARγ agonist). The MDM described above contains: DMEM/Ham's F-12 50/50 Mix (3.151 g/l, 17.5 mM D-glucose, 3.651 g/l L-glutamine) (Cellgro #10-090-CV), 5 μg/ml (0.86 μM) insulin, 1 μM dexamethasone, 100 μM 3-isobutyl-1-methylxanthine, 0.2 nM 3,3′,5-triiodo-L-thyronine, 10 μg/ml (127 nM) transferrin, and 1% penicillin-streptomycin. If rosiglitazone is used as a differentiation-inducing agent, it can be supplied at 1 μM or any other concentration sufficient to induce differentiation of BAT progenitor cells into adipocytes.
Pictures of cells were taken using a hand-held digital camera (Nikon Coolpix 950) and inverted microscope (Nikon TMS) used for cell culture observations; images were optimized using Adobe Photoshop Elements 8 functions for Auto Contrast and Auto Levels.

[2] = test system: CD31-cells (BAT progenitor cells isolated from human skeletal muscle); assay: Quantification of UCP1 and PPARγ2 mRNA (normalized to cyclophilin A) by multiplexed TaqMan real-time PCR to quantify differentiation into brown adipocytes; assay type: cell-based
Source text: A robust method, previously disclosed in WO2013071063 and incorporated herein by reference, was used for detection of CD31-cell differentiation into brown adipocytes by simultaneously quantifying mRNA species corresponding to the brown adipocyte marker UCP1, the adipocyte marker PPARγ2, and the “housekeeping” gene cyclophilin A which was used as the internal control.
This method permits analysis of a large number of samples to identify agents that enhance the differentiation of CD31-cells into brown adipocytes. When differentiated into brown adipocytes CD31-cells express much higher levels of UCP1 and PPARγ2 mRNA for a given level of cyclophilin A. UCP1 and PPARγ2 mRNA levels normalized to cyclophilin A mRNA levels give an indication of the level of differentiation of the CD31-cells into brown adipocytes, independent of the total number of cells in the sample.
Quantification of UCP1, PPARγ2 and cyclophilin A mRNA by multiplexed TaqMan real-time PCR was thus used to quantify differentiation of the CD31-cells into brown adipocytes.
as §1, with “The MDM described above contains: DMEM/Ham's F-12 50/50 Mix (3.151 g/l, 17.5 mM D-glucose, 3.651 g/l L-glutamine) (Cellgro #10-090-CV), 5 μg/ml (0.86 μM) insulin, 1 μM dexamethasone, 100 μM 3-isobutyl-1-methylxanthine, 0.2 nM 3,3′,5-triiodo-L-thyronine, 10 μg/ml (127 nM) transferrin, and 1% penicillin-streptomycin.” left out
Total RNA was prepared from cells using PureLink RNA Isolation Kit (Invitrogen #12183-016) First strand cDNA were synthesized using the High Capacity cDNA Reverse Transcription kit (Applied Biosystems, Foster City, Calif.) and random primers.
Quantitative real-time PCR was performed using an Applied Biosystems StepOnePlus™ instrument, TaqMan Gene Expression Master Mix (Applied Biosystems #4369016), and custom TaqMan gene expression probes and primers for human uncoupling protein-1 “UCP1” (GenBank NM_021833) and for human peptidylprolyl isomerase A “cyclophilin A” (GenBank NM_021130).
Cyclophilin A was used as a control to account for any variations due to the efficiency of reverse transcription. Arbitrary units were determined by normalizing target mRNA levels to cyclophilin A mRNA levels (based on Cts).

Molecule | UCP1 protein signal (IHC), differentiation of brown adipocyte progenitors into brown adipocytes [1] | brown adipocyte differentiation (light microscopy) (CD31-cells) | differentiation of BAT progenitor cells into brown adipocytes and/or expression of UCP1, PPARγ2 mRNA [2]
O=C(O)c1cc(-c2ccc(F)cc2F)ccc1O [Diflunisal] | identified using this technique | promote brown adipocyte formation | –
CCCN(CCC)S(=O)(=O)c1ccc(C(=O)O)cc1 [Probenecid] | identified using this technique | promote brown adipocyte formation | –
CCOC(=O)Oc1c(OC)cc(C(=O)O[C@@H]2C[C@@H]3CN4CCc5c([nH]c6cc(OC)ccc56)[C@H]4C[C@@H]3[C@H](C(=O)OC)[C@H]2OC)cc1OC [Syrosingopine] | identified using this technique | promote brown adipocyte formation | –
CCN(CC)CCNC(=O)c1cc(S(C)(=O)=O)ccc1OC [Tiapride hydrochloride] | identified using this technique | promote brown adipocyte formation | –
O=c1c(O)c(-c2ccc(O)cc2)oc2cc(O)cc(O)c12 [kaempferol] | – | promote brown adipocyte formation | promote the differentiation of BAT progenitor cells into brown adipocytes and/or induce the expression of UCP1
B1 | – | promote brown adipocyte formation | promote the differentiation of BAT progenitor cells into brown adipocytes and/or induce the expression of UCP1
